For assay [1], the target named is T1, IDO1 (Homo sapiens, UniProt P14902). Kind of assay: Hela cell-based IDO1 assay. The conditions noted are these: Hela cells. In a few lines:
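HeLa cells were seeded at 8000 per well in 96-well plates in phenol red-free DMEM with 10% FBS. After 4 hours, DMSO-diluted compound dilutions were added with IFN-γ (final 100 ng/mL) and 0.4 mM L-Trp, and cells were kept 48 hours at 37 °C, 5% CO2. Supernatant was deproteinised with trichloroacetic acid, and kynurenine was measured at 480 nm after adding 2% 4-(dimethylamino)benzaldehyde. Potency came from four-parameter logistic fits in XLfit.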

For assay [2], the target named is T1, IDO1. Briefly: IDO1 enzymatic assay. The conditions noted are these: read-out: Enzyme IC50 IDO1. Format: biochemical. The arrangement: His tag (N); made in house; host or cells: E. coli. The method in brief:
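Compound was incubated with 50 nM His-tagged IDO1 from E. coli, 1.3 mM D-tryptophan, 5 mM L-ascorbic acid, methylene blue and 0.4 mg/mL catalase in 50 mM potassium phosphate pH 7.5, 0.1% BSA, at 24 °C for 1.5 hours. Activity was the slope of N'-formylkynurenine formation read continuously at 321 nm for 1 hour. IC50 was obtained from remaining activity versus compound concentration.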

Assay [3] deals with T2, cellular TDO2 in HEK293-TDO2 cells (Homo sapiens, UniProt P48775).
T2 construct: expressed in transfected cells; host or cells: HEK293 (ATCC), stably transfected
Briefly: 293-TDO2 cell-based assay (Kyn colorimetric). The conditions noted are these: 48 hours of incubation. As for the experimental part: The inhibitory activity of TDO2 inhibitors is determined by using a colorimetric reaction to measure Kyn generated from L-Trp (L-Tryptophon) oxidation by cellular TDO2 in HEK293-TDO2 cells stably transfected with a plasmid expression of Tryptophan 2,3-dioxygenase (for short, 293-TDO2).
HEK293 cells were obtained from the American Type Culture Collection and 293-TDO2 were recovered in 10% FBS-containing phenol red-free DMEM medium. Cells were plated onto a 96-well plate (100 μl/well) at 10000 cells per well and kept at 37° C. in a humidified incubator supplied with 5% CO2. 4 hours later, Compounds at different concentrations diluted in dimethylsulfoxide (DMSO) were added to plate. Cells were kept at 37° C. in a humidified incubator supplied with 5% CO2. After 48 hours of incubation, 100 μl supernatant from each well was removed to a new plate. The protein in the medium was precipitated with the addition of 8 μl 6N trichloroacetic acid. The plate was incubated at 60° C. for 30 minutes and then centrifugation at 2500 rpm for 10 minutes to remove sediments. 80 μl supernatants were carefully removed to a new clean plate and added with an equal volume of 2% 4-(Dimethylamino) benzaldehyde (D2004, sigma) dissolved in glacial acetic acid. The absorbance at 480 nm wavelength derived from Kyn was measured using a PHERAstar FS plate reader (BMG LABTECH). The IC50 for each compound was derived from fitting the dose-response data to the four-parameter logistic model by using XLfit software (IDBS).

T2 sequence (P48775 whole entry): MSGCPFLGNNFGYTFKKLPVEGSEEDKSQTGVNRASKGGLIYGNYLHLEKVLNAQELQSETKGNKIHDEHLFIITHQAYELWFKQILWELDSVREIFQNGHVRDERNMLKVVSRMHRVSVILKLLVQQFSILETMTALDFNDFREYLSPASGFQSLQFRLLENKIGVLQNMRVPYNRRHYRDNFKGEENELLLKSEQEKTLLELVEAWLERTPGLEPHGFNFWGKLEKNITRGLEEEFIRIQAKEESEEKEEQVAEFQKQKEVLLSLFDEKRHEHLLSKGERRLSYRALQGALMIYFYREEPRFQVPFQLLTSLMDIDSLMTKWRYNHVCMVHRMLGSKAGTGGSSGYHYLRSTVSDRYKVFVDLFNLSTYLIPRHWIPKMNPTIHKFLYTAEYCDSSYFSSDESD
T1 sequence (P14902 whole entry): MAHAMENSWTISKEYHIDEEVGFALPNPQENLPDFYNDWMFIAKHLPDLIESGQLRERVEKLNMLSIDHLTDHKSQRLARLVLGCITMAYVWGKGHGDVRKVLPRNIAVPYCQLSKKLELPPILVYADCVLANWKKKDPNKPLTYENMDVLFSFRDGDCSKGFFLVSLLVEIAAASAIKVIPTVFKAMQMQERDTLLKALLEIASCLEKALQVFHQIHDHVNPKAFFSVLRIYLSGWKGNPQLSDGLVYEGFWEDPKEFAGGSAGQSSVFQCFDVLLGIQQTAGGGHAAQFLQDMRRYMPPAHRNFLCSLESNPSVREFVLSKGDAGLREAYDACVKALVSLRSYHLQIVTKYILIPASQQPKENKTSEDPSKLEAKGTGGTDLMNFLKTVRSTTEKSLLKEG

Take `OC(c1c(C2CC2)ccn2cncc12)C1CCC(c2ccc(OC3CCOCC3)cc2)CC1` (stereo not drawn) [Example C119, (7-cyclopropylimidazo[1,5-a]pyridin-8-yl)(4-(4-((tetrahydro-2H-pyran-4-yl)oxy)phenyl)cyclohexyl)methanol]: the concentration giving a half-maximal response (EC50) – broadly, the concentration needed to bring the measured effect to its halfway point – in assay [1] was 148 nM; in assay [3], greater than 10000 nM. For the same compound, the IC50 (as a rule, the concentration needed to halve the response being measured) in assay [2] stood at 39 nM.
For `O[C@@H](c1c(C2CC2)ccc2cncn12)[C@H]1CC[C@H](c2ccc3ccccc3c2)CC1` (single isomer, unassigned) [Example D136b], in that order: 7190 nM, greater than 10000 nM and greater than 10000 nM.
For `CN(C)C(=O)c1ccc([C@H]2CC[C@H]([C@@H](O)c3c(C4CC4)ccc4cncn34)CC2)cc1` (single isomer, unassigned) [Example D125b], in that order: 9770 nM, greater than 10000 nM and 1600 nM.
For `O=C(O)c1ccc(C2CCC(C(O)c3c(C4CC4)ccc4cncn34)CC2)cc1` (stereo not drawn) [Example D111, 4-(4-((6-cyclopropylimidazo[1,5-a]pyridin-5-yl)(hydroxy)methyl)cyclohexyl)benzoic acid] the same measures were 470 nM, greater than 10000 nM and 25 nM.
Take `OC(c1c(C2CC2)ccn2cncc12)C1CCC(c2ccnc3ccccc23)CC1` (stereo not drawn) [Example C130, (7-cyclopropylimidazo[1,5-a]pyridin-8-yl)(4-(quinolin-4-yl)cyclohexyl)methanol]: the concentration for a half-maximal effect (EC50) is 93 nM in assay [1] and greater than 10000 nM in assay [3]. Besides, the IC50 in assay [2] was 36 nM.
Take `OC(c1c(C2CC2)ccn2cncc12)C1CCN(c2ccc(Cl)c3ncccc23)CC1` (single isomer, unassigned) [Example C154a]: the figures for the concentration for a half-maximal effect (EC50) in assay [1] and in assay [3] were 18 nM and greater than 10000 nM, respectively. Further, in assay [2], the 50% inhibitory concentration (IC50) came to 16 nM.
For `OC(c1c(C2CC2)ccc2cncn12)C1CCC(c2ccc(F)c(F)c2)CC1` (stereo not drawn) [Example D126, (6-cyclopropylimidazo[1,5-a]pyridin-5-yl)(4-(3,4-difluorophenyl)cyclohexyl)methanol], in that order: 64 nM, greater than 10000 nM and 40 nM.
Turning to `OC(c1c(C2CC2)ccc2cncn12)C1CCC(c2ccc(OC3COC3)cc2)CC1` (stereo not drawn) [Example D109, (6-cyclopropylimidazo[1,5-a]pyridin-5-yl)(4-(4-(oxetan-3-yloxy)phenyl)cyclohexyl)methanol], the EC50 in assay [1] was 206 nM; in assay [3], greater than 10000 nM. The IC50 in assay [2] worked out at 39 nM.
Consider `OC(c1c(C2CC2)ccc2cncn12)C1CCC(c2ccc(Oc3ccccc3)cc2)CC1` (stereo not drawn) [Example D120, (6-cyclopropylimidazo[1,5-a]pyridin-5-yl)(4-(4-phenoxyphenyl)cyclohexyl)methanol], for which the figures for the EC50 in assay [1] and in assay [3] were 700 nM and greater than 10000 nM, respectively. Further, the half-maximal inhibitory concentration (IC50) in assay [2] stood at 100 nM.
For the compound `COc1ccc([C@H]2CC[C@H](C(O)c3c(C4CC4)ccc4cncn34)CC2)c(F)c1` (single isomer, unassigned) [Example D146a], the 50% effective concentration (EC50) in assay [1] is 122 nM; in assay [3] it was greater than 10000 nM. The IC50 in assay [2] is 19 nM.
For `OC(c1c(C2CC2)ccn2cncc12)C1CCN(c2ccc(F)c3cccnc23)CC1` (single isomer, unassigned) [Example C155b], in that order: 40 nM, greater than 10000 nM and 26 nM.
Turning to `CC(=O)Nc1ccc([C@H]2CC[C@H]([C@H](O)c3c(C4CC4)ccc4cncn34)CC2)cc1` [Example D159, N-(4-((1S,4r)-4-((S)-(6-cyclopropylimidazo[1,5-a]pyridin-5-yl)hydroxy)methylcyclohexyl)phenyl)acetamide], the figures for the 50% effective concentration (EC50) in assay [1] and in assay [3] were 80 nM and greater than 10000 nM, respectively. Also, the IC50 in assay [2] is 12 nM.
For `OC(c1c(C2CC2)ccn2cncc12)C1CCN(c2ccc(F)c3ncccc23)CC1` (single isomer, unassigned) [Example C149b], in that order: 2910 nM, greater than 10000 nM and 2400 nM.
For `OC(c1c(C2CC2)ccn2cncc12)C1CCN(c2ccnc3ccc(F)cc23)CC1` (stereo not drawn) [Example C151, (7-cyclopropylimidazo[1,5-a]pyridin-8-yl)(1-(6-fluoroquinolin-4-yl)piperidin-4-yl)methanol] the same measures were 373 nM, greater than 10000 nM and 35 nM.
For the compound `COc1ccccc1C1CCC(C(O)c2c(C3CC3)ccn3cncc23)CC1` (stereo not drawn) [Example C113, (7-Cyclopropylimidazo[1,5-a]pyridin-8-yl)(4-(2-methoxyphenyl)cyclohexyl)methan], the results for the EC50 in assay [1] and in assay [3] were 149 nM and greater than 10000 nM, respectively. The IC50 in assay [2] was found to be 55 nM.
Take `O=C(Nc1ccc(C2CCC(C(O)c3c(C4CC4)ccc4cncn34)CC2)cc1)OCc1ccccc1` (stereo not drawn) [Example D121]: the EC50 is 606 nM in assay [1] and greater than 10000 nM in assay [3]. Further, the IC50 in assay [2] is 73 nM.
For `O[C@@H](c1c(C2CC2)ccc2cncn12)[C@H]1CC[C@H](c2ccc(F)c(Cl)c2)CC1` (single isomer, unassigned) [Example D129b], in that order: 5120 nM, greater than 10000 nM and 7670 nM.
For the compound `OC(c1c(C2CC2)ccc2cncn12)C1CCC(c2ccc3sccc3c2)CC1` (stereo not drawn) [Example D133, (4-(benzo[b]thiophen-5-yl)cyclohexyl)(6-cyclopropylimidazo[1,5-a]pyridin-5-yl)methanol], the EC50 in assay [1] was 496 nM; in assay [3] it was greater than 10000 nM. Further, the half-maximal inhibitory concentration (IC50) in assay [2] came out at 44 nM.
For `O[C@@H](c1c(C2CC2)ccc2cncn12)C1CCN(c2cccc(Cl)c2)CC1` (single isomer, unassigned) [Example D173b], in that order: 7390 nM, greater than 10000 nM and 2700 nM.
For `OC(c1c(C2CC2)ccc2cncn12)C1CCN(c2cccc(Cl)c2)CC1` (stereo not drawn) [Example D173, (1-(3-chlorophenyl)piperidin-4-yl)(6-cyclopropylimidazo[15-a]pyridin-5-yl)methanol], in that order: 65 nM, greater than 10000 nM and 30 nM.
In the case of `Cc1ccccc1[C@H]1CC[C@H]([C@@H](O)c2c(C3CC3)ccn3cncc23)CC1` (single isomer, unassigned) [Example C112b], the EC50 in assay [1] and in assay [3] was greater than 10000 nM each time. Also, in assay [2], the IC50 was greater than 10000 nM.
On to `Nc1ccc([C@H]2CC[C@H]([C@@H](O)c3c(C4CC4)ccc4cncn34)CC2)cc1` (single isomer, unassigned) [Example D122b], for which the concentration for a half-maximal effect (EC50) in assay [1] and in assay [3] was greater than 10000 nM throughout. In addition, in assay [2], the IC50 turned out to be 5200 nM.
For the compound `O=C(O)c1ccc([C@H]2CC[C@H]([C@H](O)c3c(C4CC4)ccc4cncn34)CC2)cc1` (single isomer, unassigned) [Example D111a], the concentration for a half-maximal effect (EC50) in assay [1] is 351 nM; in assay [3], greater than 10000 nM. In assay [2], the 50% inhibitory concentration (IC50) was determined as 17 nM.
For `COc1cccc([C@H]2CC[C@H]([C@H](O)c3c(C(C)C)ccc4cncn34)CC2)c1` (single isomer, unassigned) [Example D169a], in that order: 14 nM, greater than 10000 nM and 15 nM.
For `OC(c1c(C2CC2)ccc2cncn12)[C@H]1CC[C@H](c2ccc(F)cc2Cl)CC1` (single isomer, unassigned) [Example D130a] the same measures were 203 nM, greater than 10000 nM and 30 nM.
`O[C@H](c1c(C2CC2)ccc2cncn12)[C@H]1CC[C@H](c2ccc(F)cc2F)CC1` (single isomer, unassigned) [Example D127a]: the figures for the EC50 in assay [1] and in assay [3] were 83 nM and greater than 10000 nM, respectively. Moreover, the IC50 in assay [2] is 16 nM.
For `Oc1ccc(C2CCC(C(O)c3c(C4CC4)ccc4cncn34)CC2)c2ccccc12` (stereo not drawn) [Example D138, (6-cyclopropylimidazo[1,5-a]pyridin-5-yl)(4-(4-hydroxynaphthalen-1-yl)cyclohexyl)methanol] the same measures were 583 nM, greater than 10000 nM and 62 nM.
